Experimental data as given in article PMC9852545, “The crystal structure of Vibrio cholerae (6-4) photolyase reveals interactions with cofactors and a DNA-binding region” (The Journal of Biological Chemistry, 2022).

Biological target: T1, Vc (6-4) PL (Vibrio cholerae, UniProt Q9KLD7)
T1 construct: gene VC_A0809
Experiment: X-ray crystallography, […] Å
Format: binding
Conditions: 100 K

T1 sequence (Q9KLD7 1-516 limits assumed): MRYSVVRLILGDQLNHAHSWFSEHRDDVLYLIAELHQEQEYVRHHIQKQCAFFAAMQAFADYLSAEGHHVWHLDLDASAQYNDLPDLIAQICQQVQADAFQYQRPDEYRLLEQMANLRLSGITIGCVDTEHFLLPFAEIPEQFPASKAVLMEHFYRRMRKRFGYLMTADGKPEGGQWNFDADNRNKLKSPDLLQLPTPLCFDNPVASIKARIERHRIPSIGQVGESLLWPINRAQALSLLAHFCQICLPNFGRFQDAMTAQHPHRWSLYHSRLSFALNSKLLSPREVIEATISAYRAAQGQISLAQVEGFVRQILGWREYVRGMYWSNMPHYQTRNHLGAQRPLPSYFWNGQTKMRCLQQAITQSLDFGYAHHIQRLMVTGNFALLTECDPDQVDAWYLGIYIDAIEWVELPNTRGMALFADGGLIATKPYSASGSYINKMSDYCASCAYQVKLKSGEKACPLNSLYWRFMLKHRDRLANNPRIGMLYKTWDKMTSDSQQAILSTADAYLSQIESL

Q: `[S]12[Fe]3[S]4[Fe]1[S]1[Fe]2[S]3[Fe]41` [[4Fe-4S] cluster] was tested. Which “X-ray crystallography, 2.5 Å” value (bound by Cys357, Cys445, Cys448, Cys461, covalent coordination, co-purified aerobically) did it give?
A: Cys357, Cys445, Cys448, and Cys461 sulfide atoms make bonds with Fe atoms in the cluster

Q: With `Cc1cc2nc3c(=O)[nH]c(=O)nc-3n(C[C@H](O)[C@H](O)[C@H](O)COP(=O)(O)OP(=O)(O)OC[C@H]3O[C@@H](n4cnc5c(N)ncnc54)[C@H](O)[C@@H]3O)c2cc1C` [FAD] as the molecule, how does the “X-ray crystallography, 2.5 Å” value (catalytic site in alpha-helical domain, co-purified, redox state not stated) read?
A: FAD has a U-shaped conformation in the α-helical domain

Q: For `Cc1nc2c(=O)[nH]c(=O)nc-2n(C[C@H](O)[C@H](O)[C@H](O)CO)c1C` [DMRL], which “X-ray crystallography, 2.5 Å” value (photoantenna site in alpha/beta domain, co-purified) is on record?
A: there is a very well-defined electron density of the DMRL and interacting amino acid residues
